Patent publication US10722563B2, “Prostate-specific tumor antigens and uses thereof” (SHENZHEN INNOVATION IMMUNOTECHNOLOGY CO., LTD., priority 2012, dated 2020)

Assays:
Format in all cases: cell-based, human
[1] = test system: PBMCs of ten HLA-A2+ healthy subjects; experiment: In vitro stimulation of peptide-specific T cells in PBMCs of healthy subjects, IFN-γ release by ELISA; settings: for healthy subjects in which the peptide induced T cell responses: 10 HLA-A2+ healthy donors, IFN-γ ELISA after 2 weeks of peptide stimulation; for concentrations of IFN-γ in the supernatants: PBMCs stimulated 14 days with peptide 20 μg/mL, response to T2 cells pre-loaded with peptide 5 μg/mL
Description: (§1) Ten HLA-A2+ prostate cancer patients and ten HLA-A2+ healthy subjects were enrolled in this study after written informed consent was obtained. All protocols were approved by the Institutional Review Board (IRB) of Baylor College of Medicine before commencing studies. 20 mL of peripheral blood was obtained from each person, and peripheral blood mononuclear cells (PBMCs) were isolated by density gradient centrifugation using Lymphoprep (Nycomed Pharma AS; Oslo, Norway). The freshly isolated PBMCs were cryopreserved for later use in 1 mL freezing medium containing 90% FCS and 10% dimethyl sulfoxide (DMSO) at −140° C. The expression of HLA-A2 molecules on PBMCs obtained from cancer patients and healthy subjects was verified by flow cytometry with FITC-labeled HLA-A2 mAb BB7.2 (BD Pharmingen, San Diego, Calif., USA).
(§2) PBMCs (1×10^5 cells/well) from either healthy subjects or prostate cancer patients were incubated with standard peptide concentrations of 20 μg/mL per peptide in 96-well U-bottom microplates (BD, Franklin Lakes, N.J., USA) in 200 μL of T-cell medium (TCM), consisting of RPMI 1640 (Mediatech, Manassas, Va., USA), 10% human AB serum (Valley Biomedical, Winchester, USA), 50 μM of 2-mercaptoethanol, 100 U/mL of interleukin-2 (IL-2), and 0.1 mM MEM nonessential amino acid solution (Invitrogen, Grand Island, N.Y., USA). Half of the TCM was removed and replaced with fresh TCM containing peptides (20 μg/mL) every 5 days. After 14 days of culture, the cells were harvested and tested for their ability to produce IFN-γ in response to T2 cells (1×10^4 cells/well), which were pre-loaded with either PSGR peptide (5 μg/mL) or a control peptide (an irrelevant HL-A2 binding peptide: NLLTHVESL) as a negative control. After 18 hours of incubation, supernatants were collected, and IFN-γ release was determined by ELISA assay.
(§3) Cytokine release was measured by coating 96-well ELISA plates (Thermo Fisher Scientific; Rochester, N.Y., USA) with 1 μg/mL anti-human IFN-γ (Pierce Biotechnology; Rockford, Ill., USA) overnight at 4° C. The plate was washed six times with PBS containing 0.05% Tween-20 (wash solution) to remove unbound coating antibody, and blocked with 1% BSA/PBS at room temperature for 2 hrs. Afterwards, 50 μL supernatant was added to each well and incubated at room temperature for 1 hr, then 50 μL of 0.5 μg/mL biotinylated anti-human IFN-γ (Pierce Biotechnology; Rockford, Ill., USA) was added and plates were incubated for an additional 1 hr at room temperature. After incubation, plates were washed and incubated for 30 min with Poly-HRP-Streptavidin (Thermo Fisher Scientific; Rochester, N.Y., USA) diluted 1:5000 in PBS/1% BSA. Plates were washed and 100 μL of TMB substrate solution (Sigma-Aldrich Co.; St. Louis, Mo., USA) was added per well. The colorimetric reaction was stopped using 2N H2SO4 and plates were read at 450 nm using an ELISA plate reader.
To determine whether PSGR-reactive T cell precursors are present in healthy subjects, we obtained PBMCs from 10 HLA-A2+ healthy donors and stimulated them in vitro with each of the 21 PSGR-derived peptides containing HLA-A2-binding motif (Table 1). After 2 weeks of peptide stimulation, supernatants from peptide-stimulated T cells were analyzed by ELISA assay to detect IFN-γ release in response to T2 cells pulsed with or without corresponding peptides.

[2] = test system: PBMCs of HLA-A2+ prostate cancer patients; experiment: In vitro stimulation of peptide-specific T cells in PBMCs of prostate cancer patients, IFN-γ release by ELISA; settings: PBMCs stimulated in vitro with peptide; for induction of peptide-specific CTLs from PBMCs of prostate cancer patients: Table 3
Description: as §1, §2, §3
Since peptide-specific T cells against PSGR3, PSGR4 and PSGR14 were found in more than 70% of healthy subjects, we reasoned that CTL precursors that recognize these 3 peptides may also be high in PBMCs of prostate cancer patients. To test our hypothesis, we examined whether these three peptide candidates can induce peptide-specific CTLs from the PBMCs of HLA-A2+ prostate cancer patients. PBMCs from prostate cancer patients were collected and stimulated in vitro with PSGR3, PSGR4 or PSGR14 peptides.

LNCaP cells = experiment: Cytotoxicity of PSGR peptide-specific T cells by LDH assay against LNCaP; settings: HLA-A2 positive, PSGR expressing LNCaP; T cells from healthy donors and patients; FIG. 2B
Description: The expression of PSGR mRNA in different cell lines was determined by RT-PCR (A). PSGR derived peptide-specific T cells were tested for cytotoxicity against both PC3 and LNCaP by the LDH assay (B). Data from B are plotted as means±SD. Results are representative of three independent experiments. *P<0.05, versus control.
Cells were stained with anti-CD8 and anti-IFN-γ, then analyzed on a FACScalibur machine (A). PSGR-derived peptide-specific T cells were co-incubated with LNCaP cells alone in medium, or with LNCaP cells in the presence of either anti-HLA-I mAb (W6/32), HLA-II mAb or a control mAb (anti-CD19 mAb). After 4 hours of incubation, the cytotoxicity against LNCaP was determined by the LDH assay (B). Data from B are plotted as means±SD. Results are representative of three independent experiments. *P<0.05, versus controls.
PSGR derived peptide-specific T cells were tested for cytotoxicity against both PC3 and LNCaP by a lactate dehydrogenase (LDH) assay (Promega; Madison, Wis., USA). The assay was performed in accordance with the manufacturer's instructions. LDH release was calculated based on the following formula: Cytotoxicity (%)=(Experimental−Effector Spontaneous−Target Spontaneous LDH release)/(Target Maximum−Target Spontaneous LDH release)×100.
Spontaneous release was determined by using the supernatant of the target cells alone or effector cells alone, and the maximum release was determined by using the supernatant of target cells incubated with a lysis solution included in LDH kit. To determine if T cell recognition is HLA-I restricted, anti-HLA-I, anti-HLA-II, or anti-CD19 mAb (all from ATCC, Manassas, Va., USA) were added into wells at the initiation of the culture.

| Sequence | healthy subjects in which the peptide induced T cell responses [1] | concentrations of IFN-γ in the supernatants ([1]; healthy subject #1) [pg/mL] | concentrations of IFN-γ in the supernatants ([1]; healthy subject #2) [pg/mL] | concentrations of IFN-γ in the supernatants ([1]; healthy subject #3) [pg/mL] | concentrations of IFN-γ in the supernatants ([1]; healthy subject #4) [pg/mL] | concentrations of IFN-γ in the supernatants ([1]; healthy subject #5) [pg/mL] | concentrations of IFN-γ in the supernatants ([1]; healthy subject #6) [pg/mL] | concentrations of IFN-γ in the supernatants ([1]; healthy subject #7) [pg/mL] | concentrations of IFN-γ in the supernatants ([1]; healthy subject #8) [pg/mL] | concentrations of IFN-γ in the supernatants ([1]; healthy subject #9) [pg/mL] | concentrations of IFN-γ in the supernatants ([1]; healthy subject #10) [pg/mL] | induction of peptide-specific CTLs from PBMCs of prostate cancer patients [2] | concentrations of IFN-γ in the supernatants ([2]; prostate cancer patient #2) [pg/mL] | concentrations of IFN-γ in the supernatants ([2]; prostate cancer patient #3) [pg/mL] | concentrations of IFN-γ in the supernatants ([2]; prostate cancer patient #12) [pg/mL] | concentrations of IFN-γ in the supernatants ([2]; prostate cancer patient #13) [pg/mL] | concentrations of IFN-γ in the supernatants ([2]; prostate cancer patient #14) [pg/mL] | concentrations of IFN-γ in the supernatants ([2]; prostate cancer patient #15) [pg/mL] | concentrations of IFN-γ in the supernatants ([2]; prostate cancer patient #16) [pg/mL] | concentrations of IFN-γ in the supernatants ([2]; prostate cancer patient #17) [pg/mL] | other results |
| --- | --- | --- | --- | --- | --- | --- | --- | --- | --- | --- | --- | --- | --- | --- | --- | --- | --- | --- | --- | --- | --- |
| ILANIYLLV (PSGR3) | 7 out of 10 | 127 | 398 | 393 | 768 | 227 | 183 | 645 | 0 | 394 | 0 | indeed induced peptide-specific CTLs | 525 | 503 | 326 | 217 | 0 | 282 | 35 | 156 | concentrations of IFN-γ in the supernatants ([2]; prostate cancer patient #22): 103 pg/mL; concentrations of IFN-γ in the supernatants ([2]; prostate cancer patient #25): 22 pg/mL; recognition and killing of LNCaP by peptide-specific T cells (LNCaP cells): could recognize and kill |
| VILANIYLLV (PSGR14) | 7 out of 10 | 471 | 0 | 115 | 0 | 124 | 296 | 843 | 0 | 346 | 854 | indeed induced peptide-specific CTLs | 344 | 116 | 272 | 23 | 0 | 24 | 0 | 100 | concentrations of IFN-γ in the supernatants ([2]; prostate cancer patient #22): 8 pg/mL; concentrations of IFN-γ in the supernatants ([2]; prostate cancer patient #25): 11 pg/mL; recognition and killing of LNCaP by peptide-specific T cells (LNCaP cells): could recognize and kill |
| WLAFPLCSL (PSGR4) | 7 out of 10 | 302 | 152 | 457 | 0 | 407 | 226 | 847 | 0 | 0 | 459 | indeed induced peptide-specific CTLs | 451 | 351 | 0 | 301 | 309 | 70 | 6.7 | 102 | concentrations of IFN-γ in the supernatants ([2]; prostate cancer patient #22): 56 pg/mL; concentrations of IFN-γ in the supernatants ([2]; prostate cancer patient #25): 27 pg/mL; recognition and killing of LNCaP by peptide-specific T cells (LNCaP cells): could recognize and kill |
